Numbers after ± are expanded uncertainties.
Experiment: molar heat capacity at constant pressure
Conditions: 101.33 kPa, Liquid, heat bridge-scanning calorimeter

CCCCn1cc[n+](C)c1.F[P-](F)(F)(F)(F)F [1-butyl-3-methylimidazolium hexafluorophosphate]
Conditions | molar heat capacity at constant pressure [J/K/mol]
480.79 K | 497.89 ± 9.9
480.92 K | 498.17 ± 9.9
481.06 K | 498.17 ± 9.9
481.2 K | 498.17 ± 9.9
481.5 K | 498.46 ± 9.9
481.64 K | 498.74 ± 9.9
481.78 K | 499.31 ± 9.9
481.91 K | 498.74 ± 9.9
482.05 K | 498.46 ± 9.9
482.2 K | 498.46 ± 9.9
482.34 K | 498.46 ± 9.9
482.47 K | 498.46 ± 9.9
482.61 K | 498.46 ± 9.9
482.75 K | 498.46 ± 9.9
482.89 K | 498.46 ± 9.9
483.19 K | 498.46 ± 9.9
483.32 K | 498.74 ± 9.9
483.46 K | 499.02 ± 9.9
483.6 K | 499.02 ± 9.9
483.74 K | 499.31 ± 9.9
483.87 K | 499.31 ± 9.9
484.01 K | 499.31 ± 9.9
484.15 K | 500.16 ± 9.9
484.29 K | 500.16 ± 9.9
484.59 K | 499.59 ± 9.9
484.72 K | 499.59 ± 9.9
484.86 K | 499.31 ± 9.9
485 K | 499.59 ± 9.9
485.14 K | 499.88 ± 9.9
485.27 K | 499.59 ± 9.9
485.41 K | 499.88 ± 9.9
485.55 K | 499.59 ± 9.9
485.69 K | 500.16 ± 9.9
485.83 K | 500.45 ± 9.9
485.96 K | 501.01 ± 9.9
486.26 K | 500.73 ± 9.9
486.4 K | 501.01 ± 9.9
486.53 K | 501.01 ± 9.9
486.67 K | 500.45 ± 9.9
486.81 K | 500.16 ± 9.9
486.95 K | 500.16 ± 9.9
487.08 K | 500.45 ± 9.9
487.22 K | 501.01 ± 9.9
487.36 K | 500.73 ± 9.9
487.66 K | 502.15 ± 9.9
487.8 K | 501.58 ± 9.9
487.94 K | 501.3 ± 9.9
488.07 K | 501.01 ± 9.9
488.21 K | 501.01 ± 9.9
488.35 K | 501.87 ± 9.9
488.48 K | 501.3 ± 9.9
488.62 K | 501.01 ± 9.9
488.77 K | 500.73 ± 9.9
488.91 K | 501.3 ± 9.9
489.05 K | 501.58 ± 9.9
489.34 K | 501.01 ± 9.9
489.48 K | 501.58 ± 9.9
489.62 K | 501.3 ± 9.9
489.75 K | 501.87 ± 9.9
489.89 K | 501.3 ± 9.9
490.03 K | 501.01 ± 9.9
490.16 K | 501.3 ± 9.9
490.3 K | 501.87 ± 9.9
490.44 K | 501.01 ± 9.9
490.74 K | 500.73 ± 9.9
490.88 K | 501.3 ± 9.9
491.02 K | 501.01 ± 9.9
491.15 K | 501.01 ± 9.9
491.29 K | 501.01 ± 9.9
491.43 K | 501.01 ± 9.9
491.56 K | 500.73 ± 9.9
491.7 K | 501.3 ± 9.9
491.84 K | 501.58 ± 9.9
491.98 K | 501.3 ± 9.9
492.11 K | 501.01 ± 9.9
492.41 K | 501.3 ± 9.9
492.55 K | 502.15 ± 9.9
492.69 K | 501.87 ± 9.9
492.82 K | 502.43 ± 9.9
492.96 K | 502.72 ± 9.9
493.1 K | 502.15 ± 9.9
493.23 K | 501.87 ± 9.9
493.37 K | 501.58 ± 9.9
493.51 K | 501.3 ± 9.9
493.81 K | 501.3 ± 9.9
493.95 K | 502.43 ± 9.9
494.09 K | 503.29 ± 9.9
494.22 K | 502.72 ± 9.9
494.36 K | 502.72 ± 9.9
494.5 K | 502.72 ± 9.9
494.64 K | 502.72 ± 9.9
494.77 K | 502.72 ± 9.9
494.91 K | 502.72 ± 9.9
495.05 K | 502.72 ± 9.9
495.2 K | 503.29 ± 9.9
495.5 K | 502.72 ± 9.9

Reference: the NIST ThermoML archive (doi:10.1021/je034102r)
